Where “and” joins values, the source holds several entries; their conditions need not be identical. Identical values can stand only once.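 48-hour exposure; five concentrations; linearly interpolated endpoints. GI50: concentration for 50% inhibition of growth. Definition used: TGI = concentration required for complete inhibition of growth.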
What was measured:
Assay in all cases: growth of human tumour cells (NCI), 48 h
SF-268 CNS = system: SF-268 CNS
SNB-75 CNS = system: SNB-75 CNS
MCF7 breast = system: MCF7 breast
NCI-H460 lung = system: NCI-H460 lung
A498 renal = system: A498 renal
NCI-H23 lung = system: NCI-H23 lung
SF-295 CNS = system: SF-295 CNS
DU-145 prostate = system: DU-145 prostate
HT29 colon = system: HT29 colon
OVCAR-8 ovarian = system: OVCAR-8 ovarian
LOX IMVI melanoma = system: LOX IMVI melanoma

SMILES	TGI (SF-268 CNS) [µM]	TGI (SNB-75 CNS) [µM]	TGI (MCF7 breast) [µM]	TGI (NCI-H460 lung)	TGI (A498 renal)	TGI (NCI-H23 lung) [µM]	TGI (SF-295 CNS) [µM]	TGI (DU-145 prostate)	TGI (HT29 colon) [µM]	TGI (OVCAR-8 ovarian) [µM]	TGI (LOX IMVI melanoma) [µM]	GI50 (LOX IMVI melanoma) [µM]	GI50 (SF-268 CNS) [µM]	GI50 (SNB-75 CNS) [µM]	GI50 (MCF7 breast) [µM]	GI50 (NCI-H460 lung) [µM]	GI50 (A498 renal) [µM]	GI50 (NCI-H23 lung) [µM]	GI50 (HT29 colon) [µM]	GI50 (OVCAR-8 ovarian) [µM]
C=CC(=O)N1C/C(=C\c2ccc(N(C)C)cc2)C(=O)/C(=C/c2ccc(N(C)C)cc2)C1	> 100	> 100	> 100	> 100 µM	> 100 µM	> 100	> 100	> 100 µM	> 100	> 100	> 100	–	–	–	–	–	–	–	–	–
COc1ccc(N2C=Nn3c(nc4sc(C)c(C)c4c3=O)C2)cc1	> 100	> 100	> 100	> 100 µM	> 100 µM	> 100	> 100	> 100 µM	> 100	> 100	> 100	–	–	–	–	–	–	–	–	–
CCN(CC)Cc1nc2sc3c(c2c(=O)n1-c1ccccc1)CCCC3	50.3	47.4	36	40.8 µM	45.2 µM	81.2	66.3	47.8 µM	29.3	32.7	28.7	–	–	–	–	–	–	–	–	–
CC(=O)NCCCCNCCCNC(C)=O	> 100	> 100	> 100	> 100 µM	> 100 µM	> 100	> 100	> 100 µM	> 100	> 100	> 100	–	–	–	–	–	–	–	–	–
C=CC[C@H]1[C@@H](O[Si](C)(C)C(C)(C)C)[C@H](n2ccc(=O)[nH]c2=O)O[C@@H]1CO[Si](C)(C)C(C)(C)C	8.64	3.97	3.8	4.06 µM	7.83 µM	5.93	3.93	6.64 µM	2.96	3.93	3.44	–	–	–	–	–	–	–	–	–
Cn1ccnc1S/C(=C\C=C(C#N)C#N)c1ccc(Cl)cc1	14.4	12.5	2.62	27.2 µM	3.16 µM	5.31	11.3	10.9 µM	16.2	3.57	0.443	0.0671	–	–	–	–	–	–	–	–
Cn1ccnc1Sc1ccc(/C=N/NC(=O)c2ccccc2O)cc1[N+](=O)[O-]	> 100	> 100	> 100	> 100 µM	> 100 µM	> 100	> 100	> 100 µM	> 100	> 100	> 100	–	–	–	–	–	–	–	–	–
COC(=O)Cc1ccc2c(c1)Sc1ccc(CC(=O)OC)cc1N2C	> 100	> 93.4	> 63.5	> 100 µM	99.6 µM	> 77.9	> 87.1	> 100 µM	> 100	> 100	> 57.1	–	–	–	–	–	–	–	–	–
CCC1C(=O)C[C@H]2[C@@H]3C(O)CC4=CC(=O)CC[C@]4(C)[C@H]3CC[C@]12C (stereo partly drawn)	> 50	> 50	> 50	> 50 µM	> 50 µM	> 50	> 50	> 50 µM	> 50	> 50	> 50	–	–	–	–	–	–	–	–	–
Oc1ccc(/C=C\c2nnc(/C=C\c3ccc(O)c(O)c3)s2)cc1O	14.8	15.3	12.8	15.6 µM	26.2 µM	17.7	24.8	18.8 µM	> 75.8	> 48.4	> 55.2	–	–	–	–	–	–	–	–	–
CC(C)C[C@H](NC(=O)[C@H](Cc1cccc2ccccc12)NC(=O)N1CCOCC1)B(O)O	0.00328	0.00348	0.139	0.0542 µM and 0.0423 µM	0.0288 µM and < 0.0143 µM	0.0076	–	0.116 µM and < 0.0249 µM	0.00448	0.0626	0.00304	0.00114	0.000925	0.000622	0.000351	0.0151	0.000871	0.00188	0.00131	0.0113
COc1ccc2c(c1)OC(c1cccnc1)C(c1ccccc1)C2=O (stereo not drawn)	> 100	> 100	> 100	> 100 µM	> 100 µM	> 100	> 100	> 100 µM	> 100	> 100	> 100	–	–	–	–	–	–	–	–	–
O=C(Nc1ccccc1)O/N=C(/CBr)c1ccccc1	47.7	30.5	40	43.1 µM	64.1 µM	26.2	70.1	38.1 µM	> 100	44.1	16.3	–	–	–	–	–	–	–	–	–
CC(C)/C(Cl)=N/OC(=O)Nc1ccc(F)c(Cl)c1	40.3	32	22.4	35.4 µM	33.3 µM	27.8	29.8	30.5 µM	13.3	32.4	3.59	–	–	–	–	–	–	–	–	–
COC(=O)/C=C/c1ccccc1N=[S@](C)(=O)c1ccc(C)cc1	> 100	36.1	> 100	49.9 µM	43.8 µM	> 100	76.9	> 100 µM	> 100	> 100	> 100	–	–	–	–	–	–	–	–	–
Cc1cnoc1NC1=CC(=O)C(=O)c2ccccc21	94.3	> 100	16.4	> 100 µM	> 100 µM	32.7	> 100	61.2 µM	90	> 100	> 100	–	–	–	–	–	–	–	–	–
Cc1cc2c(cc1Cl)Sc1nnc(Nc3ccccc3)n1S2(=O)=O	11	23.7	32.4	33.2 µM	33.8 µM	15.9	49.6	> 100 µM	> 100	20.8	18.7	–	–	–	–	–	–	–	–	–
Cc1ccc(S(=O)(=O)N/C(=C\C=C\c2ccccc2)C(=O)C(C)(C)C)cc1	> 100	> 100	> 100	> 100 µM	> 100 µM	> 100	> 100	> 100 µM	> 100	> 100	> 100	–	–	–	–	–	–	–	–	–
CC(C)(CO)CNc1cc(=O)[nH]c(N)n1	> 100	> 100	> 100	> 100 µM	> 100 µM	> 100	> 100	> 100 µM	> 100	> 100	> 100	–	–	–	–	–	–	–	–	–
